pIC50: −log10 of the molar value. Like-named read-outs stand apart in the source and are kept apart here. No end group written: not given here.
Key:
Experiment in all cases: biochemical
Assay type in all cases: binding
[1] = target: HLA-DR DRB1*1501 (DR15) (Homo sapiens, UniProt P01903+P01911); settings: DRBI *1501
[2] = target: HLA-DR DRB1*0802 (DR8) (Homo sapiens, UniProt P01903+P01911, A100R/A103L/A169T/F76Y/H45Y/I96F/K41T/L162R/M171V/P40S/Q125H/Q178H/Q39Y/Q99D/R218S/R42G/S66Y/V115G/W38E)
[3] = target: HLA-DR DRB1*0701 (DR7) (Homo sapiens, UniProt P01903+P01911, A100R/A102G/A103Q/D57E/D86V/E43K/F76Y/K127E/L162R/M171V/P40G/Q125H/Q99D/R33Q/R42Y/R54Q/S133A/S66F/T210M/V115G/Y107V/Y59L/Y89S)
[4] = target: HLA-DR DRB5*0101 (DR51) (Homo sapiens, UniProt P01903+Q30154); settings: DRB5 *0101
[5] = target: HLA-DR DRB4*0101 (DR53) (Homo sapiens, UniProt P01903+P13762, G164S); settings: DRB4 *0101
[6] = target: HLA-DR DRB1*0401 (DR4) (Homo sapiens, UniProt P01903+P01911, A100K/A169T/F76Y/I96L/K127E/L162R/M171V/N62H/P40V/Q125Y/R42H/S133A/S149N/S66Y/V115G/V209L/W38E)
[7] = target: HLA-DR DRB1*0101 (DR1) (Homo sapiens, UniProt P01903+P01911, A100R/D57E/F55L/F60I/F76Y/I96L/L162R/M171V/P40L/Q125E/R42F/V115G/Y59C)
[8] = target: HLA-DR DRB1*1302 (DR13) (Homo sapiens, UniProt P01903+P01911, A100E/A169T/K41T/L162R/M171V/P40S/Q125H/Q178H/Q39Y/Q99D/R42S/S66N/T262R/V115G/W38E/Y61H); settings: DRBI *1302
HLA-DR DRB1*1302 (DR13), sequence (P01903 26-254 limits assumed, other chains not shown): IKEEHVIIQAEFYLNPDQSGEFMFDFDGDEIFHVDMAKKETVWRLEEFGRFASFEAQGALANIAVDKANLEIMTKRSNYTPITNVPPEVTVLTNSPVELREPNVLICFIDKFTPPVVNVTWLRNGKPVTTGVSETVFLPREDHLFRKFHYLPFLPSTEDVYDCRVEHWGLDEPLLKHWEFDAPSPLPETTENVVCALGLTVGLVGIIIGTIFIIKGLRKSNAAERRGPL

[9] = target: HLA-DR DRB1*0901 (DR9) (Homo sapiens, UniProt P01903+P01911, A100R/A103E/D57H/D86V/F55Y/F60I/F76Y/I96F/K127E/L162R/M171V/P40D/Q125H/Q99R/R33Q/R42F/S133A/S66N/T210M/V115G/W38K/Y107V/Y59G/Y89S)
[10] = target: HLA-DR DRB1*1101 (DR11) (Homo sapiens, UniProt P01903+P01911, A100R/A169T/A87E/I96F/K41T/L162R/M171V/P40S/Q125H/Q178H/Q39Y/Q99D/R42S/S66Y/T262R/V115G/W38E); settings: DRB1 *1101
HLA-DR DRB1*1101 (DR11), sequence (P01903 26-254 limits assumed, other chains not shown): as above

ILFLVKMNALRRLPV
pIC50 [1]: 8.85
pIC50 [2]: 7.72
pIC50 ([3]; DRB1 *0701): 7.25
pIC50 [4]: 7.85
pIC50 [5]: 8.12
pIC50 ([6]; DRB1 *0401): 8.25
pIC50 ([7]; DRB1 *0101): 9.10

KCLVISQVSNSDSYK
pIC50 [2]: 4.75
pIC50 ([3]; DRB1 *0701): 4.33
pIC50 [4]: < 4.37
pIC50 [5]: 7.09
pIC50 [8]: 6.63
pIC50 ([6]; DRB1 *0401): 7.80
pIC50 ([7]; DRB1 *0101): 6.20

KEYVLDLYPEPTDLY
pIC50 [1]: 5.50
pIC50 ([9]; DRB1 *0901): < 4.30
pIC50 ([3]; DRB1 *0701): < 4.14
pIC50 [4]: < 4.26
pIC50 [8]: < 4.83
pIC50 ([6]; DRB1 *0401): 6.88
pIC50 ([7]; DRB1 *0101): 5.23
pIC50 [10]: < 4.23

KKCLNEILIRCHCQ
pIC50 ([9]; read-out: DRB1 *0901): 5.40
pIC50 ([7]; read-out: DRB1 *0101): 5.03

KKNIIALLIIPPKIIA
pIC50 ([2]; read-out: DRB1 *0802): 6.80
pIC50 ([3]; read-out: DRB1 *0701): 6.31
pIC50 ([7]; read-out: DRB1 *0101): 7.89

LCNFKKNIIALLIIP
pIC50 ([2]; read-out: DRB1 *0802): 4.67
pIC50 ([6]; read-out: DRB1 *0401): 6.51
pIC50 ([7]; read-out: DRB1 *0101): 8.01

LEDLLMGTLGIVCP
pIC50 ([9]; read-out: DRB1 *0901): 5.70

LGFLQRSSNTQTQK
pIC50 ([9]; read-out: DRB1 *0901): 5.87
pIC50 ([3]; read-out: DRB1 *0701): 6.38
pIC50 ([6]; read-out: DRB1 *0401): 7.74

LKELIKVGLPSFENL
pIC50 [1]: 6.44
pIC50 [2]: 5.83
pIC50 ([3]; DRB1 *0701): 6.27
pIC50 [4]: 4.38
pIC50 [5]: 6.96
pIC50 ([6]; DRB1 *0401): 6.79
pIC50 ([7]; DRB1 *0101): 7.00

LQQMLLGTLQVVCPG
pIC50 ([9]; DRB1 *0901): 5.77
pIC50 ([3]; DRB1 *0701): 6.03
pIC50 [4]: 4.53
pIC50 [5]: 5.99
pIC50 [8]: 6.40
pIC50 ([6]; DRB1 *0401): 5.83
pIC50 ([7]; DRB1 *0101): 6.77
pIC50 [10]: < 4.50
